For two compounds, Kinact and Ki results are on record in ChEMBL document CHEMBL1143129.

Assay [1] deals with Carbonic anhydrase 3 (Homo sapiens) (UniProt P07451).
Description: Inhibition of human recombinant full length carbonic hydrase 3 by stopped-flow CO2 hydration assay
The target in assay [2] is Carbonic anhydrase 13 (Mus musculus) (UniProt Q9D6N1). Description: Inhibition of mouse recombinant full length carbonic hydrase 13 by stopped-flow CO2 hydration assay.
Chain of Carbonic anhydrase 13 (Mus musculus) (Q9D6N1 whole entry, looked up): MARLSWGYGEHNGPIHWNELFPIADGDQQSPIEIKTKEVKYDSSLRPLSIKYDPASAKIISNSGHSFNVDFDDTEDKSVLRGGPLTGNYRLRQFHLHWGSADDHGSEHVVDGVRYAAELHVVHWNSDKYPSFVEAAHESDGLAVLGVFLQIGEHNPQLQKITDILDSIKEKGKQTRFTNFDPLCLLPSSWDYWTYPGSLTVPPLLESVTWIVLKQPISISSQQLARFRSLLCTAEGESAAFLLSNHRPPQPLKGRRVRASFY

Chain of Carbonic anhydrase 3 (Homo sapiens) (P07451 whole entry): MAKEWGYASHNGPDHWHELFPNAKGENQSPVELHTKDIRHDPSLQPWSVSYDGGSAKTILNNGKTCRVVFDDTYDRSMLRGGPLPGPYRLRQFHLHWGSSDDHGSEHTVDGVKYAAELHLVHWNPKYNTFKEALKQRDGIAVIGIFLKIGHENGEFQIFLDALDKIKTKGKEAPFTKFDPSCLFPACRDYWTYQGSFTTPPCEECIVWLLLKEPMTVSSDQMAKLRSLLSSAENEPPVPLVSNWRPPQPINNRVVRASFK

As for `CC(=O)/N=c1/sc(S(N)(=O)=O)nn1C`, in assay [1], the Kinact is 7 10^5nM.
With `CN(C)c1nnc(CS(N)(=O)=O)s1`, the Ki in assay [2] was determined as 20 nM. Further, the Kinact in assay [1] was 3.6 10^5nM.

The Ki is the equilibrium dissociation constant of an inhibitor or competing ligand from its target.
